{
  "source": "patent US20250346606A1",
  "about": "“CAMPTOTHECIN COMPOUND, PREPARATION METHOD THEREFOR, AND APPLICATION THEREOF” (SICHUAN KELUN-BIOTECH BIOPHARMACEUTICAL CO., LTD., priority 2021, published 2025)",
  "format_in_all_cases": "cell-based, Human",
  "key": {"[1]": {"test_system": "NCI-N87 cells", "test": "Inhibitory effect of compounds on NCI-N87 cell proliferation", "conditions": "Homo sapiens, NCI-N87, 72 h, read-out: IC50, inhibitory activity on NCI-N87 cell proliferation, NCI-N87 human gastric cancer cells, 72 h incubation, Cell Counting-Lite 2.0", "outline": "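Adherent NCI-N87 cells were exposed to compound dilutions for 72 h. Viability measured by Cell Counting-Lite 2.0 luminescence, with inhibition calculated against vehicle and cell-free background RLU. IC50 from four-parameter fit.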"}, "[2]": {"test_system": "HT29 cells", "test": "Inhibitory effect of compounds on HT29 cell proliferation", "conditions": "Homo sapiens, HT-29, 72 h, read-out: IC50, inhibitory activity on HT29 cell proliferation", "outline": "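Adherent HT29 cells incubated with diluted compounds for 72 h; viability read by luminescence (Cell Counting-Lite 2.0, 10 min). Inhibition calculated against cell-free background and vehicle-treated cells; IC50 from four-parameter curve fit.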"}, "[3]": {"test_system": "NCI-H358 cells", "test": "Inhibitory effect of compounds on NCI-H358 cell proliferation", "conditions": "Homo sapiens, NCI-H358, 72 h, read-out: IC50, inhibitory activity on NCI-H358 cell proliferation, NCI-H358 human non-small cell lung cancer cells, 72 h incubation, Cell Counting-Lite 2.0", "outline": "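Adherent NCI-H358 cells were exposed to compound for 72 h, then viability was read by luminescence (Cell Counting-Lite 2.0). Inhibition calculated from RLU relative to cell-free background and vehicle wells; IC50 from a four-parameter fit.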"}, "[4]": {"test_system": "Hela cells", "test": "Inhibitory effect of compounds on Hela cell proliferation", "conditions": "Homo sapiens, HeLa, 72 h, read-out: IC50, inhibitory activity on Hela cell proliferation", "protocol": "(1) Cell plating: First, tumor cells Hela were cultured in corresponding medium, then digested with trypsin, centrifuged, resuspended, and counted, and the cells were adjusted to an appropriate concentration for plating.\n(§1) Co-incubation of the compound of the present disclosure and tumor cells: after the cells adhered to the wall, the medium was removed, and the diluted bioactive molecule (the compound of the present disclosure) was added to the wells of the above plate, and incubated for 72 h.\n(§2) In vitro cell viability detection: After the incubation, 50 μL of Cell Counting-Lite™ 2.0 reagent (Vazyme/Novazyme) was added to each well, shaken and mixed well in the dark, reacted for 10 minutes, and then the detection was carried out with a microplate reader (manufacturer: BMG, Model: PHERAStar-FS) for reading. The background RLU was obtained by using cell-free medium (with Cell Counting-Lite™), and the vehicle RLU was obtained by using cell-containing medium (with Cell Counting-Lite™). Cell inhibition rate=1−(sample RLU−background RLU)/(solvent RLU−background RLU)×100%. According to the four-parameter model fitting curve, the half maximal inhibitory concentration (IC50) of the compound was calculated, and the detection results were shown in Table 14."}, "[5]": {"test_system": "HCC70 cells", "test": "Inhibitory effect of compounds on HCC70 cell proliferation", "conditions": "Homo sapiens, HCC70, 72 h, read-out: IC50, inhibitory activity on HCC70 cell proliferation", "protocol": "(1) Cell plating: First, tumor cells HCC70 were cultured in corresponding medium, then digested with trypsin, centrifuged, resuspended, and counted, and the cells were adjusted to an appropriate concentration for plating.\nas §1\nas §2, with “16.” for “14.”"}, "[6]": {"test_system": "SKOV-3 cells", "test": "Inhibitory effect of compounds on SKOV-3 cell proliferation", "conditions": "Homo sapiens, SK-OV-3, 72 h, read-out: IC50, inhibitory activity on SKOV-3 cell proliferation", "protocol": "(1) Cell plating: First, tumor cells SKOV-3 were cultured in corresponding medium, then digested with trypsin, centrifuged, resuspended, and counted, and the cells were adjusted to an appropriate concentration for plating.\nas §1\nas §2, with “8.” for “14.”"}, "[7]": {"test_system": "A549 cells", "test": "Inhibitory effect of compounds on A549 cell proliferation", "conditions": "Homo sapiens, A549, 72 h, read-out: IC50, inhibitory activity on A549 cell proliferation", "protocol": "(1) Cell plating: First, tumor cells A549 were cultured in the corresponding medium, then digested with trypsin, centrifuged and resuspended, and counted, and the cells were adjusted to an appropriate concentration for plating.\nas §1\nas §2, with “activity” for “viability”, “4.” for “14.”"}},
  "data": [
    {"smiles": "CC[C@@]1(O)C(=O)OCc2c1cc1n(c2=O)Cc2c-1nc1cc(Cl)c(C)c3c1c2[C@@H](NC(=O)C1(O)CC1)CC3", "note": "[Example 7 (2-20-A), N-((1S,9S)-5-chloro-9-ethyl-9-hydroxy-4-methyl-10,13-dioxo-2,3,9,10,13,15-hexahydro-1H,12H-benzo[de]pyrano[3′,4′:6,7]indolizino[1,2-b]quinolin-1-yl)-1-hydroxycyclopropane-1-carboxamide]", "values": [
      {"measurement": "IC50", "setting": "[1]", "value": 4.54, "unit": "nM"},
      {"measurement": "IC50", "setting": "[2]", "value": 1.29, "unit": "nM"},
      {"measurement": "IC50", "setting": "[3]", "value": 18.6, "unit": "nM"},
      {"measurement": "IC50", "setting": "[4]", "value": 11.2, "unit": "nM"},
      {"measurement": "IC50", "setting": "[5]", "value": 105, "unit": "nM"},
      {"measurement": "IC50", "setting": "[6]", "value": 6.79, "unit": "nM"},
      {"measurement": "IC50", "setting": "[7]", "value": 8.14, "unit": "nM"}
    ]}
  ]
}
